The values below come from PubChem BioAssay AID248 (DTP/NCI, 2004).

The assay has as its system L1210 leukemia ip in BDF1 mice, survival T/C. Put plainly: NCI In Vivo Anticancer Drug Screen. Data for tumor model L1210 Leukemia (intraperitoneal) in B6D2F1 (BDF1) mice. As to conditions: endpoint: mean survival time, higher = longer survival. An outline of the steps:
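Antitumor effect is assessed in tumor-bearing animals. Survival in the compound arm is compared with a vehicle-dosed control arm and expressed as their quotient.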

Setting [1] is: dose: 75.0 mg/kg/injection, schedule: Q01DX001 (ip), vehicle: saline.
The mark [2] stands for this setting: dose: 50.0 mg/kg/injection, schedule: Q01DX001 (ip), vehicle: carboxymethylcellulose (CMC).
Where [3] appears, read: dose: 100.0 mg/kg/injection, schedule: Q01DX001 (ip), vehicle: carboxymethylcellulose (CMC).
The mark [4] stands for this setting: dose: 200.0 mg/kg/injection, schedule: Q01DX001 (ip), vehicle: carboxymethylcellulose (CMC).
Where [5] appears, read: dose: 400.0 mg/kg/injection, schedule: Q01DX001 (ip), vehicle: carboxymethylcellulose (CMC).
[6] abbreviates: dose: 25.0 mg/kg/injection, schedule: Q01DX009 (ip), vehicle: Klucel (hydroxypropylcellulose) (HPC).
Where [7] appears, read: dose: 50.0 mg/kg/injection, schedule: Q01DX009 (ip), vehicle: Klucel (hydroxypropylcellulose) (HPC).
Setting [8] is: dose: 50.0 mg/kg/injection, schedule: Q04DX003 (ip), vehicle: Klucel (hydroxypropylcellulose) (HPC).
The mark [9] stands for this setting: dose: 100.0 mg/kg/injection, schedule: Q01DX009 (ip), vehicle: Klucel (hydroxypropylcellulose) (HPC).
Setting [10] is: dose: 100.0 mg/kg/injection, schedule: Q04DX003 (ip), vehicle: Klucel (hydroxypropylcellulose) (HPC).
Setting [11] is: dose: 100.0 mg/kg/injection, schedule: Q04DX002 (ip), vehicle: saline with Tween-80.
The mark [12] stands for this setting: dose: 100.0 mg/kg/injection, schedule: Q04DX003 (ip), vehicle: saline.
[13] abbreviates: dose: 200.0 mg/kg/injection, schedule: Q04DX003 (ip), vehicle: saline.
Where [14] appears, read: dose: 12.5 mg/kg/injection, schedule: Q01DX009 (ip), vehicle: Klucel (hydroxypropylcellulose) (HPC).

Inconclusive results and toxic doses are left out.

On to `Clc1ccc(C2NC(c3ccc(Cl)cc3)NC(c3ccc(Cl)cc3)N2)cc1` (stereo unspecified), for which the T/C is 95 % of control under setting [1]; 95 % of control (dose: 150.0 mg/kg/injection, schedule: Q01DX001 (ip), vehicle: saline); 90 % of control (dose: 300.0 mg/kg/injection, schedule: Q01DX001 (ip), vehicle: saline).

On to `CCCCOCCOc1ccc(C(=O)OC)cc1`, for which the T/C is, setting by setting: (dose: 100.0 mg/kg/injection, schedule: Q04DX003 (ip), vehicle: saline sonified) 101 % of control; (dose: 200.0 mg/kg/injection, schedule: Q04DX003 (ip), vehicle: saline sonified) 111 % of control; (dose: 400.0 mg/kg/injection, schedule: Q04DX003 (ip), vehicle: saline sonified) 101 % of control.

As to `Nc1ccc2c(c1)C(=O)c1c(F)c(F)c(F)c(F)c1-2`, the T/C is 97 % of control under setting [2], 103 % of control under setting [3], 97 % of control under setting [4] and 100 % of control under setting [5].

As to `COc1ccc2cc[n+](C)cc2c1`, the T/C runs as follows: (dose: 12.5 mg/kg/injection, schedule: Q01DX009 (ip), vehicle: saline) 101 % of control; (dose: 25.0 mg/kg/injection, schedule: Q01DX009 (ip), vehicle: saline) 110 % of control; (dose: 25.0 mg/kg/injection, schedule: Q04DX003 (ip), vehicle: saline) 100 % of control; (dose: 50.0 mg/kg/injection, schedule: Q01DX009 (ip), vehicle: saline) 110 % of control; (dose: 50.0 mg/kg/injection, schedule: Q04DX003 (ip), vehicle: saline) 96 % of control.

`CCCCCCCCCCN(CCCCCCCCCC)C(C)C(=O)c1ccc2cc(Br)c3ccccc3c2c1` (stereo unspecified): the T/C (dose: 55.0 mg/kg/injection, schedule: Q01DX Z (ip), vehicle: methylcellulose (MC)) is 93 % of control; the T/C (dose: 83.0 mg/kg/injection, schedule: Q01DX Z (ip), vehicle: methylcellulose (MC)) is 100 % of control; the T/C (dose: 125.0 mg/kg/injection, schedule: Q01DX Z (ip), vehicle: methylcellulose (MC)) is 93 % of control.

For `Cc1cc2c(cc1C)N(C(=O)CCl)CC(=O)N2`, the T/C runs as follows: (dose: 9.37 mg/kg/injection, schedule: Q01DX009 (ip), vehicle: acetone) 95 % of control; (dose: 18.75 mg/kg/injection, schedule: Q01DX009 (ip), vehicle: acetone) 93 % of control; (dose: 18.75 mg/kg/injection, schedule: Q04DX003 (ip), vehicle: saline) 96 % of control; (dose: 37.5 mg/kg/injection, schedule: Q01DX009 (ip), vehicle: acetone) 93 % of control; (dose: 37.5 mg/kg/injection, schedule: Q04DX003 (ip), vehicle: saline) 98 % of control; under setting [1], 113 % of control. In addition, where the note is “dose: 75.0 mg/kg/injection, schedule: Q04DX003 (ip), vehicle: saline”, the T/C was 93 % of control.

Take `Nc1nc(=S)c2[nH]c(N=Nc3ccc(S(=O)(=O)O)cc3)nc2[nH]1`: the T/C was 100 % of control under setting [6]; 102 % of control under setting [7]; 114 % of control under setting [8]; 102 % of control under setting [9]; 153 % of control under setting [10].

Take `CC(C)(C)c1cc(C[N+](C)(C)C)cc(C(C)(C)C)n1`: the T/C was 92 % of control (dose: 50.0 mg/kg/injection, schedule: Q04DX002 (ip), vehicle: saline with Tween-80) and 99 % of control under setting [11].

Take `OC1(C#CC2(O)CCCC2)CCCC1`: the T/C by setting is: under setting [2], 98 % of control; under setting [3], 95 % of control; under setting [4], 87 % of control; under setting [5], 93 % of control.

Regarding `O=C(NCCCl)NC1CCCCCC1`, the T/C runs as follows: under setting [9], 101 % of control; (dose: 200.0 mg/kg/injection, schedule: Q01DX009 (ip), vehicle: Klucel (hydroxypropylcellulose) (HPC)) 108 % of control; (dose: 400.0 mg/kg/injection, schedule: Q01DX009 (ip), vehicle: Klucel (hydroxypropylcellulose) (HPC)) 100 % of control.

As for `COC1OC(n2cnc3ncn(Cc4ccccc4)c3c2=N)C2OC(C)(C)OC12` (stereo unspecified), the T/C runs as follows: under setting [12], 97 % of control; under setting [13], 92 % of control.

As for `COc1cc2c(cc1OC)C1CC(=O)C(CC(C)C)CN1CC2` (stereo unspecified), the T/C under setting [6] was 105 % of control; the T/C under setting [7] was 103 % of control; the T/C under setting [9] was 117 % of control; the T/C (dose: 100.0 mg/kg/injection, schedule: Q01DX009 (ip), vehicle: saline with Tween-80) was 102 % of control; the T/C (dose: 200.0 mg/kg/injection, schedule: Q01DX009 (ip), vehicle: saline with Tween-80) was 90 % of control; the T/C (dose: 400.0 mg/kg/injection, schedule: Q01DX009 (ip), vehicle: saline with Tween-80) is 89 % of control.

As to `O=[N+]([O-])c1ccccc1/C=C/C=N/N=C/c1ccccc1O`, the T/C (dose: 75.0 mg/kg/injection, schedule: Q01DX001 (ip), vehicle: other) was 94 % of control; the T/C (dose: 150.0 mg/kg/injection, schedule: Q01DX001 (ip), vehicle: other) was 95 % of control; the T/C (dose: 300.0 mg/kg/injection, schedule: Q01DX001 (ip), vehicle: other) is 88 % of control.

For the compound `CCO/C=C1\SC(=S)N(Cc2ccccc2)C1=O`, the T/C was 94 % of control (dose: 100.0 mg/kg/injection, schedule: Q04DX003 (ip), vehicle: saline with Tween-80); 99 % of control (dose: 200.0 mg/kg/injection, schedule: Q04DX003 (ip), vehicle: saline with Tween-80); 102 % of control (dose: 400.0 mg/kg/injection, schedule: Q04DX003 (ip), vehicle: saline with Tween-80).

For the compound `CCC/C(C)=N/Nc1ccccn1`, the T/C under setting [14] was 97 % of control; the T/C under setting [6] is 94 % of control; the T/C (dose: 25.0 mg/kg/injection, schedule: Q01DX009 (ip), vehicle: acetone) is 106 % of control; the T/C under setting [7] is 102 % of control; the T/C (dose: 50.0 mg/kg/injection, schedule: Q01DX009 (ip), vehicle: acetone) is 87 % of control; the T/C (dose: 50.0 mg/kg/injection, schedule: Q04DX003 (ip), vehicle: acetone) is 103 % of control. In addition, the T/C runs as follows: (dose: 100.0 mg/kg/injection, schedule: Q01DX001 (ip), vehicle: acetone) 98 % of control; under setting [9], 102 % of control; (dose: 100.0 mg/kg/injection, schedule: Q04DX003 (ip), vehicle: acetone) 97 % of control; (dose: 200.0 mg/kg/injection, schedule: Q01DX001 (ip), vehicle: acetone) 103 % of control.

With `Cc1ccc(NC(=S)Nc2ccc(Cc3ccc(NC(=S)Nc4ccc(C)cc4)cc3)cc2)cc1`, the T/C runs as follows: under setting [11], 98 % of control; (dose: 200.0 mg/kg/injection, schedule: Q04DX002 (ip), vehicle: saline with Tween-80) 103 % of control; (dose: 400.0 mg/kg/injection, schedule: Q04DX002 (ip), vehicle: saline with Tween-80) 88 % of control.

With `CN(C(=O)CCl)c1ccccc1`, the T/C by setting is: under setting [14], 92 % of control; under setting [6], 98 % of control; (dose: 25.0 mg/kg/injection, schedule: Q04DX003 (ip), vehicle: Klucel (hydroxypropylcellulose) (HPC)) 104 % of control; under setting [7], 93 % of control; under setting [8], 98 % of control; under setting [10], 88 % of control.

Regarding `COc1ccc(-n2c(=S)[nH]c3ccccc3c2=O)cc1`, the T/C runs as follows: (dose: 100.0 mg/kg/injection, schedule: Q01DX009 (ip), vehicle: other) 107 % of control; under setting [12], 95 % of control; (dose: 200.0 mg/kg/injection, schedule: Q01DX009 (ip), vehicle: other) 96 % of control; under setting [13], 91 % of control; (dose: 400.0 mg/kg/injection, schedule: Q01DX009 (ip), vehicle: other) 102 % of control; (dose: 400.0 mg/kg/injection, schedule: Q04DX003 (ip), vehicle: saline) 91 % of control.

Regarding `O=C(O)CN1C(=O)CNC12CCCCC2`, the T/C was 95 % of control (dose: 100.0 mg/kg/injection, schedule: Q01DX001 (ip), vehicle: saline); 101 % of control (dose: 200.0 mg/kg/injection, schedule: Q01DX001 (ip), vehicle: saline); 97 % of control (dose: 400.0 mg/kg/injection, schedule: Q01DX001 (ip), vehicle: saline).
